Laboratory results: patent US20100204107A1, “USE OF URODILATIN AS A THERAPEUTIC AGENT” (priority 2007, published 2010)

Tested on: Human Peripheral Blood Mononuclear Cells (PBMC)
Assay: T cell proliferation assay (PHA, 3H-thymidine)
Assay type: cell-based
Details: 10 micrograms per ml, 3 days plus 12 hours 3H-thymidine

Secretin
% of PHA induced control: 100.5%
